The source of these data is patent US11685719B2, “Pyridinone MK2 inhibitors and uses thereof” (Xinthera, Inc., priority 2021, dated 2023).

The target in assay [1] is p38a/PRAK (Homo sapiens (Human), UniProt Q16539). As to the kind of experiment: biochemical. The following applies: 10-point 1:3 dilution, top dose 300 μM; 10 μM ATP, 2 h incubation; read-out: p38a/PRAK Enzyme pIC50 (converted). The method in brief:
(§1)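 Recombinant N-terminal GST-tagged MK2 (F46-H400) or PRAK (M1-Q471), expressed in E. coli, were activated by p38. Activity read as phosphorylation of FITC-conjugated HSP27 peptide. IC50 taken as half-maximal inhibition of activation from 10-point 1:3 dilutions, top dose 1 or 10 μM for MK2 and 300 μM for PRAK.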

The target of assay [2] is p38a/MK2 (Homo sapiens (Human), UniProt P49137+Q16539). The assay can be described thus: biochemical. The following applies: 10-point 1:3 dilution, top dose 1 μM; 10 μM ATP, 2 h incubation; read-out: p38a/MK2 (1 μM) Enzyme pIC50 (converted). In short, it runs like this: as §1
Sequence of p38a/MK2 (Q16539 whole entry): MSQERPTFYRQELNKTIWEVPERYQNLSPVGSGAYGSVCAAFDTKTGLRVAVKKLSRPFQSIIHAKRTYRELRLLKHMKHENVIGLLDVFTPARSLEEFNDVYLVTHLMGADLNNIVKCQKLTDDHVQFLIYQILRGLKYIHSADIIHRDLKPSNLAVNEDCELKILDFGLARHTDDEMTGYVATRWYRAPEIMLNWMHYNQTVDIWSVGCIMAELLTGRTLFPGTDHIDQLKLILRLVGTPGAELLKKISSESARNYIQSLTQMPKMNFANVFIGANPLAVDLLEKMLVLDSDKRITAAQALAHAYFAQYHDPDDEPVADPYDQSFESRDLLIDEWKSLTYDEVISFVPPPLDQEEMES
Sequence of p38a/MK2 (P49137 46-400): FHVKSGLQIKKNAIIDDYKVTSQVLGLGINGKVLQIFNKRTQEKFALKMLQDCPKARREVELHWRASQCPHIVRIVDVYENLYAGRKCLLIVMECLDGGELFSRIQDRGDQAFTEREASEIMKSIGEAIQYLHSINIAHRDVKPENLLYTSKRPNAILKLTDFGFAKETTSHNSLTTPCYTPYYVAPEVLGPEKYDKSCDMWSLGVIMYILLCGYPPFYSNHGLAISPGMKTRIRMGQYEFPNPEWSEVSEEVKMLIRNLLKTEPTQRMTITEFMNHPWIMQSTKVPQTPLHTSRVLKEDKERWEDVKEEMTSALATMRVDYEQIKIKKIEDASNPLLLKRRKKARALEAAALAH

Sequence of p38a/PRAK (Q16539 whole entry): as the sequence (Q16539 whole entry) above

Consider `Cc1cnc(-n2cccc(C(C)(C)O)c2=O)cc1-n1c(C)nc(OCc2ncc(F)cc2F)c(Cl)c1=O` (single isomer, unassigned) [Example 25B, rel-4′-{5-chloro-4-[(3,5-difluoropyridin-2-yl)methoxy]-2-methyl-6-oxopyrimidin-1-yl}-3-(2-hydroxypropan-2-yl)-5′-methyl-[1,2′-bipyridin]-2-one], for which the IC50 was over 316000 nM in assay [1] and 631 nM in assay [2].
The like results for `[2H]C([2H])(Oc1cc(C)n(-c2cc(-n3ccc(F)c(C(C)(C)O)c3=O)ncc2C)c(=O)c1Cl)c1ncc(F)cc1F` (single isomer, unassigned) [Example 26A, rel-3-chloro-4-[(3,5-difluoropyridin-2-yl)(2H2)methoxy]-2′-[4-fluoro-3-(2-hydroxypropan-2-yl)-2-oxopyridin-1-yl]-5′,6-dimethyl-[1,4′-bipyridin]-2-one] were, in that order, 3160 nM and 2.51 nM.
As for `[2H]C([2H])(Oc1cc(C)n(-c2cc(-n3ccc(F)c(C(C)(C)O)c3=O)ncc2C)c(=O)c1Cl)c1ncc(F)cc1F` (single isomer, unassigned) [Example 26B, rel-3-chloro-4-[(3,5-difluoropyridin-2-yl)(2H2)methoxy]-2′-[4-fluoro-3-(2-hydroxypropan-2-yl)-2-oxopyridin-1-yl]-5′,6-dimethyl-[1,4′-bipyridin]-2-one], the IC50 is over 316000 nM in assay [1] and over 100 nM in assay [2].
Turning to `Cc1cnc(-n2ccn(C(C)(C)CO)c2=O)cc1-n1c(C)cc(OCc2ncc(F)cc2F)c(Cl)c1=O` (single isomer, unassigned) [Example 27A, rel-3-chloro-4-[(3,5-difluoropyridin-2-yl)methoxy]-2′-[3-(1-hydroxy-2-methylpropan-2-yl)-2-oxoimidazol-1-yl]-5′,6-dimethyl-[1,4′-bipyridin]-2-one], the values for the IC50 in assay [1] and in assay [2] were over 316000 nM and over 100 nM, respectively.
As for `Cc1cnc(-n2ccn(C(C)(C)CO)c2=O)cc1-n1c(C)cc(OCc2ncc(F)cc2F)c(Cl)c1=O` (single isomer, unassigned) [Example 27B, rel-3-chloro-4-[(3,5-difluoropyridin-2-yl)methoxy]-2′-[3-(1-hydroxy-2-methylpropan-2-yl)-2-oxoimidazol-1-yl]-5′,6-dimethyl-[1,4′-bipyridin]-2-one], the IC50 is 794 nM in assay [1] and 12.6 nM in assay [2].
The corresponding values for `[2H]C([2H])(Oc1cc(C)n(-c2cc(-n3ccnc(C(C)(C)O)c3=O)ncc2C)c(=O)c1Cl)c1ncc(C)cc1F` (single isomer, unassigned) [Example 28A, rel-3-chloro-4-[(3-fluoro-5-methylpyridin-2-yl)(2H2)methoxy]-2′-[3-(2-hydroxypropan-2-yl)-2-oxopyrazin-1-yl]-5′,6-dimethyl-[1,4′-bipyridin]-2-one] are 3160 nM and 1 nM.
For `[2H]C([2H])(Oc1cc(C)n(-c2cc(-n3ccnc(C(C)(C)O)c3=O)ncc2C)c(=O)c1Cl)c1ncc(C)cc1F` (single isomer, unassigned) [Example 28B, rel-3-chloro-4-[(3-fluoro-5-methylpyridin-2-yl)(2H2)methoxy]-2′-[3-(2-hydroxypropan-2-yl)-2-oxopyrazin-1-yl]-5′,6-dimethyl-[1,4′-bipyridin]-2-one], the results for the IC50 in assay [1] and in assay [2] were over 316000 nM and over 100 nM, respectively.
